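1) Cells in 96-well plates. 2) Compound, 48 h, 5 concentrations. 3) Linear interpolation between surrounding doses. 4) Unreached endpoint = highest concentration. The concentration for 50% growth inhibition is given as GI50.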 Activity calls are given as the source filed them. No stated cut-off is given here; in the data, active = GI50 up to about 1.1 µM and inactive = higher. Where a SMILES comes first, the peptide text is derived from it. [ ]: non-standard residue; d: D form. Ac5c = NC1(C(=O)O)CCCC1
Legend:
Assay in all cases: NCI-60 cell line screen, 48 h
ACHN = tested on: ACHN
CAKI-1 = tested on: CAKI-1
EKVX = tested on: EKVX
HCT-116 = tested on: HCT-116
HT-29 = tested on: HT-29
MOLT-4 = tested on: MOLT-4
OVCAR-8 = tested on: OVCAR-8
PC-3 = tested on: PC-3
RXF 393 = tested on: RXF 393
SN12C = tested on: SN12C
SNB-19 = tested on: SNB-19
SW-620 = tested on: SW-620
TK-10 = tested on: TK-10
U-251 = tested on: U-251
UACC-257 = tested on: UACC-257
UO-31 = tested on: UO-31
HOP-62 = tested on: HOP-62
M14 = tested on: M14
Malme-3M = tested on: Malme-3M
RPMI-8226 = tested on: RPMI-8226

Structure (SMILES)	GI50 (ACHN)	GI50 (CAKI-1)	GI50 (EKVX)	GI50 (HCT-116)	GI50 (HT-29)	GI50 (MOLT-4)	GI50 (OVCAR-8)	GI50 (PC-3)	GI50 (RXF 393)	GI50 (SN12C)	GI50 (SNB-19)	GI50 (SW-620)	GI50 (TK-10)	GI50 (U-251)	GI50 (UACC-257)	GI50 (UO-31)	GI50 (HOP-62)	GI50 (M14)	GI50 (Malme-3M)	GI50 (RPMI-8226)
Cc1ccc(NC(=O)C(=O)C2C(=O)C3=C(CC2(C)C)NC2C=CC=CC2S3)c(C)c1 (configuration not stated)	> 100 µM (inactive)	> 100 µM (inactive)	73.8 µM (inactive)	> 100 µM (inactive)	> 100 µM (inactive)	99.8 µM (inactive)	37.5 µM (inactive)	> 100 µM (inactive)	> 100 µM (inactive)	> 100 µM (inactive)	> 100 µM (inactive)	> 100 µM (inactive)	> 100 µM (inactive)	59 µM (inactive)	> 100 µM (inactive)	48.2 µM (inactive)	–	–	–	–
Cc1cc2c(C)n(Cc3ccc(Cl)cc3Cl)nc2c(C#N)c1C	49 µM (inactive)	41.8 µM (inactive)	57.1 µM (inactive)	29.8 µM (inactive)	55.5 µM (inactive)	> 100 µM (inactive)	14.8 µM (inactive)	–	15.3 µM (inactive)	53.3 µM (inactive)	15.7 µM (inactive)	> 100 µM (inactive)	23.7 µM (inactive)	22.1 µM (inactive)	> 100 µM (inactive)	52.8 µM (inactive)	20 µM (inactive)	49 µM (inactive)	24.9 µM (inactive)	99.3 µM (inactive)
COc1ccc(C(CC(=O)c2ccccc2)C(=O)c2ccc3c(c2)OCO3)cc1 (configuration not stated)	> 100 µM (inactive)	> 100 µM (inactive)	> 100 µM (inactive)	–	–	> 100 µM (inactive)	> 100 µM (inactive)	> 100 µM (inactive)	–	> 100 µM (inactive)	> 100 µM (inactive)	> 100 µM (inactive)	> 100 µM (inactive)	> 100 µM (inactive)	> 100 µM (inactive)	> 100 µM (inactive)	> 100 µM (inactive)	> 100 µM (inactive)	79.3 µM (inactive)	> 100 µM (inactive)
Cc1n[nH]c(=O)n1N1C(=O)c2ccccc2C1=O	> 100 µM (inactive)	> 100 µM (inactive)	> 100 µM (inactive)	> 100 µM (inactive)	> 100 µM (inactive)	> 100 µM (inactive)	> 100 µM (inactive)	> 100 µM (inactive)	–	> 100 µM (inactive)	> 100 µM (inactive)	> 100 µM (inactive)	> 100 µM (inactive)	> 100 µM (inactive)	> 100 µM (inactive)	> 100 µM (inactive)	> 100 µM (inactive)	> 100 µM (inactive)	> 100 µM (inactive)	–
CC(C)(C)C1CCC2c3c([nH]c4ccccc34)C3C(=O)N(c4cccc([N+](=O)[O-])c4)C(=O)C3C2C1 (configuration not stated)	36.2 µM (inactive)	19.6 µM (inactive)	22.4 µM (inactive)	11.6 µM (inactive)	17.7 µM (inactive)	6.84 µM (inactive)	25.7 µM (inactive)	27 µM (inactive)	54 µM (inactive)	7 µM (inactive)	55.8 µM (inactive)	57.8 µM (inactive)	38.5 µM (inactive)	> 100 µM (inactive)	22.5 µM (inactive)	35.2 µM (inactive)	29.6 µM (inactive)	37.6 µM (inactive)	23.2 µM (inactive)	–
O=C(Nc1ccc(Br)cc1)C(=O)C(C(=O)c1ccc(Cl)c(Cl)c1)C1OC(=O)c2ccccc21 (configuration not stated)	16.3 µM (inactive)	14.4 µM (inactive)	28.8 µM (inactive)	12.5 µM (inactive)	21.3 µM (inactive)	10.4 µM (inactive)	12.3 µM (inactive)	–	3.5 µM (inactive)	20.2 µM (inactive)	16.7 µM (inactive)	14 µM (inactive)	20.2 µM (inactive)	8.97 µM (inactive)	16 µM (inactive)	18.5 µM (inactive)	15.2 µM (inactive)	15.4 µM (inactive)	10.4 µM (inactive)	39.7 µM (inactive)
COc1ccc(OC)c(NC(=O)C(=O)C(C(C)=O)c2nc3ccc(Cl)cc3nc2O)c1 (configuration not stated)	> 50 µM (inactive)	> 50 µM (inactive)	> 50 µM (inactive)	> 50 µM (inactive)	> 50 µM (inactive)	> 50 µM (inactive)	> 50 µM (inactive)	–	> 50 µM (inactive)	> 50 µM (inactive)	> 50 µM (inactive)	> 50 µM (inactive)	> 50 µM (inactive)	> 50 µM (inactive)	> 50 µM (inactive)	> 50 µM (inactive)	> 50 µM (inactive)	> 50 µM (inactive)	> 50 µM (inactive)	> 50 µM (inactive)
Cc1c(/C=N\NC(=S)N2CCN(C(=S)N/N=C\c3c(C)n(C)n(-c4ccccc4)c3=O)CC2)c(=O)n(-c2ccccc2)n1C	21.2 µM (inactive)	82.6 µM (inactive)	71.6 µM (inactive)	49.5 µM (inactive)	13.1 µM (inactive)	37.4 µM (inactive)	–	32.9 µM (inactive)	67.9 µM (inactive)	–	47.5 µM (inactive)	33.2 µM (inactive)	5.7 µM (inactive)	29.1 µM (inactive)	26.8 µM (inactive)	> 100 µM (inactive)	37.2 µM (inactive)	57 µM (inactive)	72.4 µM (inactive)	–
CC1=CC(C)C(O)C(C)/C=C\C(O)C/C=C(/C)C(=O)CC(O)C(C)\C=C/C=C\C=C/C(=O)NC2=C(O)C(=O)c3c(cc(C)c(O)c3C1=O)C2=O (configuration not stated)	> 100 µM (inactive)	> 100 µM (inactive)	> 100 µM (inactive)	58.1 µM (inactive)	56.4 µM (inactive)	71.1 µM (inactive)	> 100 µM (inactive)	> 100 µM (inactive)	–	> 100 µM (inactive)	> 100 µM (inactive)	> 100 µM (inactive)	> 100 µM (inactive)	> 100 µM (inactive)	> 100 µM (inactive)	> 100 µM (inactive)	> 100 µM (inactive)	> 100 µM (inactive)	–	> 100 µM (inactive)
CC1(C)COP(=S)(c2ccccn2)O[C@@H]1c1ccccc1 (some centres not stated)	> 100 µM (inactive)	> 100 µM (inactive)	> 100 µM (inactive)	42.8 µM (inactive)	81.8 µM (inactive)	30.1 µM (inactive)	> 100 µM (inactive)	88.7 µM (inactive)	62.2 µM (inactive)	> 100 µM (inactive)	> 100 µM (inactive)	> 100 µM (inactive)	> 100 µM (inactive)	> 100 µM (inactive)	> 100 µM (inactive)	50.8 µM (inactive)	> 100 µM (inactive)	> 100 µM (inactive)	> 100 µM (inactive)	–
N#Cc1cc([N+](=O)[O-])ccc1NC(=O)C(F)(F)F	> 100 µM (inactive)	> 100 µM (inactive)	> 100 µM (inactive)	> 42.9 µM (inactive)	> 45.5 µM (inactive)	> 100 µM (inactive)	> 84.3 µM (inactive)	–	> 56.6 µM (inactive)	> 100 µM (inactive)	> 100 µM (inactive)	> 40.9 µM (inactive)	> 100 µM (inactive)	> 100 µM (inactive)	> 100 µM (inactive)	> 100 µM (inactive)	> 100 µM (inactive)	> 100 µM (inactive)	> 100 µM (inactive)	> 45.8 µM (inactive)
CN(CCO)CCCC1COc2ccccc2O1 (configuration not stated)	63.8 µM (inactive)	> 100 µM (inactive)	73.3 µM (inactive)	> 100 µM (inactive)	> 100 µM (inactive)	> 100 µM (inactive)	> 100 µM (inactive)	> 100 µM (inactive)	> 100 µM (inactive)	> 100 µM (inactive)	> 100 µM (inactive)	> 100 µM (inactive)	> 100 µM (inactive)	> 100 µM (inactive)	> 100 µM (inactive)	> 100 µM (inactive)	> 100 µM (inactive)	> 100 µM (inactive)	> 100 µM (inactive)	–
O/N=N\c1nc(-c2ccccn2)nc2ccccc12	2.14 µM (inactive)	2.12 µM (inactive)	18.2 µM (inactive)	3.33 µM (inactive)	0.611 µM (active)	0.373 µM (active)	12.4 µM (inactive)	11.7 µM (inactive)	–	23 µM (inactive)	42.3 µM (inactive)	5.35 µM (inactive)	17.4 µM (inactive)	17.5 µM (inactive)	7.69 µM (inactive)	18.7 µM (inactive)	1.98 µM (inactive)	4.09 µM (inactive)	1.24 µM (inactive)	–
COc1ccccc1-c1cc(=O)c2ccc(OC)c(OC)c2o1	39.4 µM (inactive)	> 100 µM (inactive)	58.7 µM (inactive)	45.9 µM (inactive)	34.3 µM (inactive)	60.4 µM (inactive)	54.6 µM (inactive)	–	27.1 µM (inactive)	63.1 µM (inactive)	82.2 µM (inactive)	96.2 µM (inactive)	46.6 µM (inactive)	46.1 µM (inactive)	44.9 µM (inactive)	30.2 µM (inactive)	> 100 µM (inactive)	64.3 µM (inactive)	92.5 µM (inactive)	47.6 µM (inactive)
COC(=O)C1(NC(=O)C(C)NC(=O)C(CCCCN)NC(=O)C(CC(C)C)NC(C)=O)CCCC1 (configuration not stated) (Ac-LKA[Ac5c]-OMe; configuration not given here)	> 100 µM (inactive)	–	> 100 µM (inactive)	> 100 µM (inactive)	> 100 µM (inactive)	> 100 µM (inactive)	> 100 µM (inactive)	> 100 µM (inactive)	–	> 100 µM (inactive)	> 100 µM (inactive)	> 100 µM (inactive)	> 100 µM (inactive)	–	> 100 µM (inactive)	> 100 µM (inactive)	> 100 µM (inactive)	> 100 µM (inactive)	–	> 100 µM (inactive)
